In patent US20140315933A1, “CHEMICAL COMPOUNDS” (Pfizer Limited, priority 2013, published 2014):
Where a name gives a salt, the structure may show the parent alone.

molecular target: T1, URAT-1 transporter (Homo sapiens, UniProt Q96S37); test: URAT-1 inhibitor activity: [14C]-uric acid uptake into CHO-URAT1(L)GFP#8 (CHO#8) cells, scintillation proximity; type: cell-based
T1 construct: expressed in transfected cells
Text: The nucleotide sequence for the long isoform of URAT1 (NM_144585) was C-terminally fused to that of enhanced green fluorescent protein (eGFP) (hereinafter referred to as URAT1(L)GFP). The combined sequence was codon-optimised and custom synthesized. The synthesized sequence was generated in pDONR221 Gateway entry vector (Invitrogen Life Technologies) prior to cloning in pLenti6.3/V5 Gateway destination vector (Invitrogen Life Technologies).
Lentiviral particles were generated according to ViraPower HiPerform expression system procedure (Invitrogen Life Technologies) and used to transduce CHO cells. Blasticidin selection enabled the generation of a stable clonal pool of cells, confirmed by expression of GFP and V5 epitope. The clonal pools were sorted using fluorescence-activated cell sorting (FACS) on the basis of GFP expression with the gating set at the top 50% of expression into single cells which were subsequently expanded to generate clonal lines. […] This cell line was used for all screening activities and is referred to as CHO-URAT1(L)GFP#8 or CHO#8.
The potency of the compounds of formula (I) as inhibitors of the URAT-1 transporter was determined as follows.
CHO#8 cells were cultured in cell line maintenance flasks in medium consisting of Dulbecco's modified Eagle medium (DMEM) with high glucose and sodium pyruvate (4.5 g of glucose per litre, Invitrogen Life Technologies), supplemented with heat-inactivated foetal bovine serum (FBC, 10% v/v), 1×NEAA (non-essential amino acids) and blasticidin (10 μg/ml). Cultures were grown in 175 cm^2 tissue culture flasks in a humidified incubator at approximately 37° C. in approximately 95% air/5% CO2. Near confluent CHO#8 cell cultures were harvested by trypsinisation, re-suspended in culture medium and the process was repeated once or twice weekly to provide sufficient cells for use.
Assay ready flasks were generated by the same method, except the cells were not cultured in blasticidin.
Assay ready frozen cells were generated by freezing 40,000,000 cells in 1 ml of FBS (without blasticidin) containing 10% DMSO per vial. One vial was sufficient for 5 assay plates. Each vial was thawed rapidly to 37° C., washed and re-suspended in pre-warmed culture medium for seeding onto assay plates.
CHO#8 cells were seeded onto Cytostar™ 96-well plates at a density of […]. The cells were cultured for 1 day at approximately 37° C. in a humidified incubator containing approximately 5% CO2 in air. After approximately 24 hours culture, cells were used for uptake experiments.
On the day of assay, culture medium was removed from the wells and the cells were washed once with 50 μL of chloride-containing buffer (136.7 mM NaCl, 5.36 mM KCl, 0.952 mM CaCl2, 0.441 mM KH2PO4, 0.812 mM MgSO4, 5.6 mM D-glucose, 0.383 mM Na2HPO4.2H2O, 10 mM HEPES, pH 7.4 with NaOH). The cells were pre-incubated with another 50 μL of chloride-containing buffer for one hour at approximately 37° C. in a humidified incubator containing approximately 5% CO2 in air.
Assay compound plates were prepared by diluting the compounds of formula (I) with chloride-free buffer (125 mM Na-gluconate, 4.8 mM K-gluconate, 1.3 mM Ca-gluconate, 1.2 mM KH2PO4, 1.2 mM MgSO4, 5.6 mM D-glucose, 25 mM HEPES, pH 7.4 with NaOH) in 100% DMSO to a final concentration of 1% DMSO. [^14C]-Uric Uric acid working stock was made by addition of radiolabeled compound to a final concentration of 120 nM in chloride-free buffer. In all wells, the final assay concentration of solvent (DMSO) was 0.25%; the final assay concentration of [^14C]-uric acid was 30 nM in chloride-free buffer and the final compound of formula (I) concentrations ranged from 0 to 10 μM.
After pre-incubation, cells were washed with 50 μL of chloride-free buffer and another 50 μL of chloride-free buffer was added. […]

T1 sequence (Q96S37 with tags, fused parts or gaps): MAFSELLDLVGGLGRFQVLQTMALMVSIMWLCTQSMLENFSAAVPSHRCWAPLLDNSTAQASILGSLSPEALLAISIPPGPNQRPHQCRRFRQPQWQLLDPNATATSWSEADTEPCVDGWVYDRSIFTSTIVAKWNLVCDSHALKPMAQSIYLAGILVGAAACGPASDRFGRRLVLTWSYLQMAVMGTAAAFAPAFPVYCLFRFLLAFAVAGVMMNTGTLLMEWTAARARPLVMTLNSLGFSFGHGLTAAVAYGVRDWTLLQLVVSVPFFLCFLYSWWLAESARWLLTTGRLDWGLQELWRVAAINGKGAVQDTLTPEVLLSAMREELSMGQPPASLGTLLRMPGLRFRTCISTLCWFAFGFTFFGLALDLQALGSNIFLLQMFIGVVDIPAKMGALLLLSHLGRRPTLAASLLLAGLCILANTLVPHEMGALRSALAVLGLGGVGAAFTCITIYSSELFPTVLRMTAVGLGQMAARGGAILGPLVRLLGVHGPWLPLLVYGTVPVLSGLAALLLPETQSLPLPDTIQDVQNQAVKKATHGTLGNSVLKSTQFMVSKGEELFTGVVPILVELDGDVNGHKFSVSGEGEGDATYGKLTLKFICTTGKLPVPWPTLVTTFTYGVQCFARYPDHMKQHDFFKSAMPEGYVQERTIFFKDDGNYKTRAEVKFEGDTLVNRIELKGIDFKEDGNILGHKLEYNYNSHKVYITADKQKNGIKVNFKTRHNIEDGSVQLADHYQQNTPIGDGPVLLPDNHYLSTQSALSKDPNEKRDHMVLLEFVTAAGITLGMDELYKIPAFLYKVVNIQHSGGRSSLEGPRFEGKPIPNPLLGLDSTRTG

Row | IC50 [nM] | SMILES
1 | > 6080 | COc1ccc(C(F)(F)F)cc1Oc1ccc(S(=O)(=O)Nc2ncns2)cc1C#N [Example 29, 3-cyano-4-[2-methoxy-5-(trifluoromethyl)phenoxy]-N-(1,2,4-thiadiazol-5-yl)benzenesulfonamide diethylamine salt]
2 | 609 | N#Cc1cc(S(=O)(=O)Nc2ncns2)ccc1Oc1ccc(Cl)cc1OC1CCC1 [Example 30, 4-[4-chloro-2-(cyclobutyloxy)phenoxy]-3-cyano-N-(1,2,4-thiadiazol-5-yl)benzenesulfonamide diethylamine salt]
3 | 2220 | N#Cc1cc(S(=O)(=O)Nc2ncns2)ccc1Oc1cc(Cl)ccc1OC(F)F [Example 31, 4-[5-chloro-2-(difluoromethoxy)phenoxy]-3-cyano-N-(1,2,4-thiadiazol-5-yl)benzenesulfonamide]
4 | 986 | N#Cc1cc(S(=O)(=O)Nc2ncns2)ccc1Oc1ccc(Cl)cc1OC(F)(F)F [Example 32, 4-[4-chloro-2-(trifluoromethoxy)phenoxy]-3-cyano-N-(1,2,4-thiadiazol-5-yl)benzenesulfonamide diethylamine salt]
5 | 6190 | N#Cc1cc(S(=O)(=O)Nc2ncns2)ccc1Oc1ccc(C(F)(F)F)cc1C(F)(F)F [Example 33, 4-[2,4-bis(trifluoromethyl)phenoxy]-3-cyano-N-(1,2,4-thiadiazol-5-yl)benzenesulfonamide]
6 | 4320 | N#Cc1cc(S(=O)(=O)Nc2ncns2)ccc1Oc1ccccc1C(F)(F)F [Example 35, 3-cyano-4-(2-(trifluoromethyl)phenoxy)-N-(1,2,4-thiadiazol-5-yl)benzenesulfonamide]
7 | 1940 | N#Cc1cc(S(=O)(=O)Nc2ncns2)ccc1Oc1ccccc1F [Example 36, 3-cyano-4-(2-fluorophenoxy)-N-(1,2,4-thiadiazol-5-yl)benzenesulfonamide]
8 | > 7100 | CC(C)(C)c1ccc(Oc2ccc(S(=O)(=O)Nc3ncns3)cc2C#N)c(Cl)c1 [Example 38, 4-(4-tert-butyl-2-chlorophenoxy)-3-cyano-N-(1,2,4-thiadiazol-5-yl)benzenesulfonamide]
9 | 994 | Cc1cc(F)ccc1Oc1ccc(S(=O)(=O)Nc2ncns2)cc1C#N [Example 39, 3-cyano-4-(4-fluoro-2-methylphenoxy)-N-(1,2,4-thiadiazol-5-yl)benzenesulfonamide]
10 | > 2920 | Cc1ccc(Cl)cc1Oc1ccc(S(=O)(=O)Nc2ncns2)cc1C#N [Example 40, 4-(5-chloro-2-methylphenoxy)-3-cyano-N-(1,2,4-thiadiazol-5-yl)benzenesulfonamide]
11 | 1350 | Cc1ccc(F)cc1Oc1ccc(S(=O)(=O)Nc2ncns2)cc1C#N [Example 41, 3-cyano-4-(5-fluoro-2-methylphenoxy)-N-(1,2,4-thiadiazol-5-yl)benzenesulfonamide]
12 | > 3090 | Cc1cc(Cl)ccc1Oc1ccc(S(=O)(=O)Nc2ncns2)cc1C#N [Example 42, 4-(4-chloro-2-methylphenoxy)-3-cyano-N-(1,2,4-thiadiazol-5-yl)benzenesulfonamide]
13 | 877 | N#Cc1cc(S(=O)(=O)Nc2ncns2)ccc1Oc1ccc(F)cc1F [Example 43, 3-cyano-4-(2,4-difluorophenoxy)-N-(1,2,4-thiadiazol-5-yl)benzenesulfonamide]
14 | 4330 | N#Cc1cc(S(=O)(=O)Nc2ncns2)ccc1Oc1cc(C(F)(F)F)ccc1F [Example 44, 3-cyano-4-[2-fluoro-5-(trifluoromethyl)phenoxy]-N-(1,2,4-thiadiazol-5-yl)benzenesulfonamide]
15 | 1020 | N#Cc1cc(S(=O)(=O)Nc2ncns2)ccc1Oc1cc(C(F)(F)F)ccc1Cl [Example 45, 4-[2-chloro-5-(trifluoromethyl)phenoxy]-3-cyano-N-(1,2,4-thiadiazol-5-yl)benzenesulfonamide]
16 | 504 | N#Cc1cc(S(=O)(=O)Nc2ncns2)ccc1Oc1ccc(F)cc1Cl [Example 46, 4-(2-chloro-4-fluorophenoxy)-3-cyano-N-(1,2,4-thiadiazol-5-yl)benzenesulfonamide]

Row | IC50 [nM] | SMILES
17 | 5390 | N#Cc1cc(F)ccc1Oc1ccc(S(=O)(=O)Nc2ncns2)cc1C#N [Example 47, 3-cyano-4-(2-cyano-4-fluorophenoxy)-N-(1,2,4-thiadiazol-5-yl)benzenesulfonamide]
18 | 1960 | N#Cc1cc(S(=O)(=O)Nc2ncns2)ccc1Oc1cccc(Cl)c1F [Example 48, 4-(3-chloro-2-fluorophenoxy)-3-cyano-N-(1,2,4-thiadiazol-5-yl)benzenesulfonamide]
19 | 1460 | N#Cc1cc(S(=O)(=O)Nc2ncns2)ccc1Oc1cccc(F)c1F [Example 49, 3-cyano-4-(2,3-difluorophenoxy)-N-(1,2,4-thiadiazol-5-yl)benzenesulfonamide]
20 | 2550 | N#Cc1cc(S(=O)(=O)Nc2ncns2)ccc1Oc1cc(F)ccc1F [Example 50, 3-cyano-4-(2,5-difluorophenoxy)-N-(1,2,4-thiadiazol-5-yl)benzenesulfonamide]
21 | 2140 | N#Cc1ccc(Oc2ccc(S(=O)(=O)Nc3ncns3)cc2C#N)c(F)c1 [Example 51, 3-cyano-4-(4-cyano-2-fluorophenoxy)-N-(1,2,4-thiadiazol-5-yl)benzenesulfonamide]
22 | 650 | N#Cc1cc(S(=O)(=O)Nc2ncns2)ccc1Oc1ccc(Cl)cc1F [Example 52, 4-(4-chloro-2-fluorophenoxy)-3-cyano-N-(1,2,4-thiadiazol-5-yl)benzenesulfonamide]
23 | 5240 | N#Cc1cc(S(=O)(=O)Nc2ncns2)ccc1Oc1cccc(C(F)(F)F)c1F [Example 53, 3-cyano-4-[2-fluoro-3-(trifluoromethyl)phenoxy]-N-(1,2,4-thiadiazol-5-yl)benzenesulfonamide]
24 | 2850 | N#Cc1cc(S(=O)(=O)Nc2ncns2)ccc1Oc1cccc(C(F)(F)F)c1 [Example 54, 3-cyano-N-(1,2,4-thiadiazol-5-yl)-4-[3-(trifluoromethyl)phenoxy]benzene sulfonamide]
25 | 590 | N#Cc1cc(S(=O)(=O)Nc2ncns2)ccc1Oc1cc(Cl)ccc1Cl [Example 55, 3-cyano-4-(2,5-dichlorophenoxy)-N-(1,2,4-thiadiazol-5-yl)benzenesulfonamide]
26 | 2120 | CCc1cc(F)ccc1Oc1ccc(S(=O)(=O)Nc2ncns2)c(C#N)c1 [Example 56, 2-cyano-4-(2-ethyl-4-fluorophenoxy)-N-(1,2,4-thiadiazol-5-yl)benzenesulfonamide]
27 | 517 | [2H]C([2H])([2H])Oc1cc(Cl)ccc1Oc1ccc(S(=O)(=O)Nc2ncns2)cc1C#N [Example 57]
28 | > 10000 | Cn1cc(NS(=O)(=O)c2ccc(Oc3ccc(C#N)c(Cl)c3)c(C#N)c2)cn1 [Example 58, 4-(3-chloro-4-cyanophenoxy)-3-cyano-N-(1-methyl-1H-pyrazol-4-yl)benzenesulfonamide]
29 | > 10000 | Cc1cc(NS(=O)(=O)c2ccc(Oc3ccc(C#N)c(Cl)c3)c(C#N)c2)on1 [Example 59, 4-(3-chloro-4-cyanophenoxy)-3-cyano-N-(3-methyl-1,2-oxazol-5-yl)benzenesulfonamide]
30 | > 8780 | O=S(=O)(Nc1ncc(F)s1)c1ccc(Oc2ccc(Cl)cc2OC(F)(F)F)c(F)c1 [Example 60, 4-[4-chloro-2-(trifluoromethoxy)phenoxy]-3-fluoro-N-(5-fluoro-1,3-thiazol-2-yl)benzenesulfonamide]
31 | > 10000 | O=S(=O)(Nc1ncc(F)s1)c1ccc(Oc2ccc(Cl)cc2C(F)(F)F)c(F)c1 [Example 61, 4-[4-chloro-2-(trifluoromethyl)phenoxy]-3-fluoro-N-(5-fluoro-1,3-thiazol-2-yl)benzenesulfonamide]
